Source: the NIST ThermoML archive (doi:10.1021/je201009c)
± gives the expanded uncertainty stated by the source.

Assay: refractive index (Na D-line) (dimensionless); xn = mol fraction of the nth substance listed
Conditions: 100.8 kPa, Liquid, Standard Abbe refractometry

CC(=O)OCc1ccccc1 [benzyl ethanoate] + CCO
refractive index
Conditions	293.15 K	303.15 K	313.15 K	323.15 K
x2 = 0	1.50245 ± 0.0011	1.49776 ± 0.0011	1.49309 ± 0.0011	1.48834 ± 0.0011
x2 = 0.0502	1.49958 ± 0.0011	1.49479 ± 0.0011	1.49006 ± 0.0011	1.48521 ± 0.0011
x2 = 0.1	1.49646 ± 0.0011	1.49168 ± 0.0011	1.48693 ± 0.0011	1.48205 ± 0.0011
x2 = 0.1498	1.49316 ± 0.001	1.48838 ± 0.001	1.48362 ± 0.001	1.47874 ± 0.001
x2 = 0.1998	1.48968 ± 0.001	1.48491 ± 0.001	1.48007 ± 0.001	1.47517 ± 0.001
x2 = 0.2499	1.48589 ± 0.001	1.48118 ± 0.001	1.47629 ± 0.001	1.47143 ± 0.001
x2 = 0.2998	1.4819 ± 0.001	1.47715 ± 0.001	1.47228 ± 0.001	1.46739 ± 0.001
x2 = 0.35	1.4776 ± 0.001	1.47284 ± 0.001	1.46794 ± 0.001	1.46309 ± 0.001
x2 = 0.4	1.47289 ± 0.001	1.46818 ± 0.001	1.46327 ± 0.001	1.45847 ± 0.001
x2 = 0.4501	1.46787 ± 0.001	1.46316 ± 0.001	1.45826 ± 0.001	1.45346 ± 0.001
x2 = 0.5	1.46245 ± 0.001	1.45772 ± 0.001	1.45286 ± 0.001	1.44807 ± 0.001
x2 = 0.5499	1.45652 ± 0.001	1.45179 ± 0.001	1.44703 ± 0.001	1.44215 ± 0.001
x2 = 0.6	1.44996 ± 0.001	1.44531 ± 0.001	1.44052 ± 0.001	1.43561 ± 0.001
x2 = 0.65	1.44279 ± 0.001	1.43815 ± 0.001	1.43339 ± 0.001	1.42851 ± 0.001
x2 = 0.7	1.43481 ± 0.001	1.43018 ± 0.001	1.42552 ± 0.001	1.42067 ± 0.001
x2 = 0.7499	1.42603 ± 0.001	1.42142 ± 0.001	1.41682 ± 0.001	1.41198 ± 0.001
x2 = 0.7999	1.41623 ± 0.001	1.41163 ± 0.001	1.40711 ± 0.001	1.40231 ± 0.001
x2 = 0.85	1.40518 ± 0.001	1.40062 ± 0.001	1.39617 ± 0.001	1.39132 ± 0.001
x2 = 0.9	1.39263 ± 0.001	1.38811 ± 0.001	1.38375 ± 0.001	1.37895 ± 0.001
x2 = 0.95	1.3782 ± 0.001	1.37384 ± 0.001	1.36951 ± 0.001	1.36489 ± 0.001
